How the values were obtained:
human EBP = target: T1, human EBP (Homo sapiens, UniProt Q15125); assay: hEBP SPA competition binding assay ([3H]-Ifenprodil)
T1 construct: expressed in transfected cells; host or cells: human embryonic kidney 293 cells
Description: Membrane preparation: To examine compound binding affinity to EBP, human EBP was overexpressed in human embryonic kidney 293 cells. Cell pellet was lysed in 10 times weight binding buffer (50 mM Tris, 5 mM MgCl2, 0.1 mM EDTA, lx protease inhibitor cocktail, pH 7.5) on ice by using a dounce homogenizer. The solution was centrifuged at 25,000 g for 50 min at 4° C. The membrane pellet was re-suspended in binding buffer and run through a 25⅝ gauge needle. After checking the concentration by Bradford assay, the whole cell membrane solution was adjusted to 20 mg/mL and stored at −80° C.
This binding solution was centrifuged at 400 g for 5 minutes to collect the bead/membrane mixture. After re-suspending the pellet in binding buffer at the same calculated volume with 0.01% BSA (Sigma A1933), the bead/membrane mixture was added in 384-well low-binding surface plate (PerkinElmer Cat #6057480) at 25 µl/well. Radioligand at different concentrations with and without the non-radio-labeled same ligand 5 uM (for nonspecific and total signal, respectively) was added to bring final volume to 50 µl/well with DMSO concentration at 0.1%. At equilibrium (3 hours after ligand addition), radiometric signal CPM was counted by using a Microbeta2 microplate counter (Perkinelmer).
A pre-incubated bead/membrane mixture was added in compound plate at 0.3 mg beads and […] membrane per well. […] At equilibrium (3 hours after ligand addition), radiometric signal was counted as described above. The percentage inhibition of compound at each testing concentration was calculated by normalizing each condition's CPM readout to full block (5 uM non-radiolabeled ligand) and non-block (DMSO) control conditions. Compound binding inhibition IC50 was determined by nonlinear regression fitting of percentage inhibition plot against compound concentration. Compound Ki was calculated from the equation Ki=IC50/(1+[L]/Kd), which [L] was radioligand concentration used in assay. All tests had N bigger or equal to 2.

[1] = target: T2, human emopamil binding protein and human 7-dehydrocholesterol reductase (hEBP-DHCR7) (Homo sapiens, UniProt Q15125); assay: hEBP-DHCR7 radioligand filtration binding assay; details: membranes of HEK293 co-expressing hEBP and DHCR7; [3H] 2-thia-6-azaspiro[3.4]octane radioligand; 8 doses 0.06 to 5000 nM
T2 construct: expressed in transfected cells; host or cells: HEK 293 cells, transient transfection with 2 DNA constructs
How it was run: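 Membranes from HEK293 cells transiently co-expressing human EBP and DHCR7 (10 μg/well) incubated 3 h at 22 °C with tritiated 2-thia-6-azaspiro[3.4]octane dioxide radioligand (25 nM stock addition) and compound at 0.06–5000 nM final. Bound ligand collected on PEI-treated GF/B filters, scintillation-counted. IC50 by Hill fit; reported as Ki.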

T2 sequence (Q15125 whole entry): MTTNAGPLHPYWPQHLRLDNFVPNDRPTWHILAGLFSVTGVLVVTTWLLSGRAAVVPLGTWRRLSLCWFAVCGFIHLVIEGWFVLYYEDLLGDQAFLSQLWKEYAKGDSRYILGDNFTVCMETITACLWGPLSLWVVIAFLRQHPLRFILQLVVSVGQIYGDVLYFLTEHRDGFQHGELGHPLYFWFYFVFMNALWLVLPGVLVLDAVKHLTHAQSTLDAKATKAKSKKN
T1 sequence (Q15125 whole entry): as above

SMILES	Ki (human EBP)	Ki [1]
CC(C)n1nc(-c2ccc(C(F)(F)F)cc2)cc1[C@H]1[C@@H]2C[C@H](N3CCC4(C3)CS(=O)(=O)C4)C[C@@H]21 [Compound 5, 6-((1R,3r,5S,6r)-6-(1-Isopropyl-3-(4-(trifluoromethyl)phenyl)-1H-pyrazol-5-yl)bicyclo[3.1.0]hexan-3-yl)-2-thia-6-azaspiro[3.4]octane 2,2-dioxide]	22 nM	43 nM
CC(C)n1nc(-c2cncc(C(F)(F)F)c2)cc1[C@H]1[C@@H]2C[C@@H](N3CCC4(CC3)CS(=O)(=O)C4)C[C@@H]21 (single isomer, unassigned) [Compound 38]	26 nM	41 nM
CC(C)n1nc(-c2cccc(C(F)(F)F)n2)cc1[C@H]1[C@@H]2C[C@H](N3CCC4(C3)CS(=O)(=O)C4)C[C@@H]21 (single isomer, unassigned) [Compound 12]	17 nM	12 nM
CC(C)n1nc(-c2cccc(C(F)(F)F)n2)cc1[C@H]1[C@@H]2C[C@@H](N3CCC4(CC3)CS(=O)(=O)C4)C[C@@H]21 (single isomer, unassigned) [Compound 47]	19 nM	175 nM
CC(C)n1nc(-c2cncc(C(F)(F)F)c2)cc1[C@H]1[C@@H]2C[C@H](N3CCC4(C3)CS(=O)(=O)C4)C[C@@H]21 (single isomer, unassigned) [Compound 4]	31 nM	14.5 nM
CC(C)n1nc(-c2cccc(C(F)(F)F)n2)cc1[C@H]1[C@@H]2C[C@H](N3CCC4(CC3)CS(=O)(=O)C4)C[C@@H]21 (single isomer, unassigned) [Compound 48]	15 nM	12.5 nM
CC(C)n1nc(-c2cccc(C(F)(F)F)c2)cc1[C@H]1[C@@H]2C[C@@H](N3CCC4(C3)CS(=O)(=O)C4)C[C@@H]21 (single isomer, unassigned) [Compound 2]	38 nM	5.91 nM
CC(C)n1nc(-c2ccnc(C(F)(F)F)n2)cc1[C@H]1[C@@H]2C[C@@H](N3CCC4(CC3)CS(=O)(=O)C4)C[C@@H]21 (single isomer, unassigned) [Compound 49]	24 nM	64.9 nM
CC(C)n1nc(-c2cc(C(F)(F)F)ccn2)cc1[C@H]1[C@@H]2C[C@@H](N3CCC4(C3)CS(=O)(=O)C4)C[C@@H]21 (single isomer, unassigned) [Compound 20]	62 nM	48.9 nM
CC(C)n1nc(-c2cncc(C(F)(F)F)c2)cc1[C@H]1[C@@H]2C[C@H](N3CCC4(CC3)CS(=O)(=O)C4)C[C@@H]21 (single isomer, unassigned) [Compound 40]	26 nM	18.4 nM
CC(C)n1nc(-c2cncc(C(F)(F)F)c2)nc1[C@H]1[C@@H]2C[C@H](N3CCC4(C3)CS(=O)(=O)C4)C[C@@H]21 (single isomer, unassigned) [Compound 17]	67 nM	116 nM
CC(C)n1nc(-c2ccnc(C(F)(F)F)n2)cc1[C@H]1[C@@H]2C[C@H](N3CCC4(C3)CS(=O)(=O)C4)C[C@@H]21 [Compound 15, 6-((1R,3r,5S,6r)-6-(1-Isopropyl-3-(2-(trifluoromethyl)pyrimidin-4-yl)-1H-pyrazol-5-yl)bicyclo[3.1.0]hexan-3-yl)-2-thia-6-azaspiro[3.4]octane 2,2-dioxide]	19 nM	20 nM
CC(C)n1nc(C(F)(F)F)cc1[C@H]1[C@@H]2C[C@H](N3CCC4(C3)CS(=O)(=O)C4)C[C@@H]21 (single isomer, unassigned) [Compound 23]	13 nM	12.4 nM
CC(C)n1nc(-c2cncc(C(F)(F)F)c2)nc1[C@H]1[C@@H]2C[C@@H](N3CCC4(C3)CS(=O)(=O)C4)C[C@@H]21 (single isomer, unassigned) [Compound 16]	20 nM	21 nM
CCn1nc(-c2cncc(C(F)(F)F)c2)cc1[C@H]1[C@@H]2C[C@@H](N3CCC4(C3)CS(=O)(=O)C4)C[C@@H]21 (single isomer, unassigned) [Compound 24]	30 nM	19.9 nM
CC(C)n1nc(-c2cncc(C(F)(F)F)c2)cc1[C@H]1[C@@H]2C[C@H](N3CC4(C3)CS(=O)(=O)C4)C[C@@H]21 (single isomer, unassigned) [Compound 99*]	58 nM	48 nM
CC(C)n1nc(-c2cccc(C(F)(F)F)n2)cc1[C@H]1[C@@H]2C[C@@H](N3CCC4(C3)CS(=O)(=O)C4)C[C@@H]21 (single isomer, unassigned) [Compound 11]	36 nM	13.2 nM
CC(C)n1nc(-c2ccnc(C(F)(F)F)c2)cc1[C@H]1[C@@H]2C[C@H](N3CCC4(C3)CS(=O)(=O)C4)C[C@@H]21 (single isomer, unassigned) [Compound 19]	16 nM	9.6 nM
CC(C)n1nc(-c2cncc(C(F)(F)F)c2)cc1[C@H]1[C@@H]2C[C@H](N3CC[C@@]4(CCS(=O)(=O)C4)C3)C[C@@H]21 (single isomer, unassigned) [Compound 9*]	26 nM	20.1 nM
CC(C)n1nc(C2(C(F)(F)F)CC2)cc1[C@H]1[C@@H]2C[C@H](N3CCC4(C3)CS(=O)(=O)C4)C[C@@H]21 [Compound 32, 6-((1R,3r,5S,6r)-6-(1-Isopropyl-3-(1-(trifluoromethyl)cyclopropyl)-1H-pyrazol-5-yl)bicyclo[3.1.0]hexan-3-yl)-2-thia-6-azaspiro[3.4]octane 2,2-dioxide]	23 nM	13.5 nM
CC(C)n1nc(-c2ccnc(C(F)(F)F)n2)cc1[C@H]1[C@@H]2C[C@@H](N3CCC4(C3)CS(=O)(=O)C4)C[C@@H]21 [Compound 28, 6-((1R,3s,5S,6r)-6-(1-isopropyl-3-(2-(trifluoromethyl)pyrimidin-4-yl)-1H-pyrazol-5-yl)bicyclo[3.1.0]hexan-3-yl)-2-thia-6-azaspiro[3.4]octane 2,2-dioxide]	22 nM	24.6 nM
CC(C)n1nc(-c2cnc(C(F)(F)F)nc2)cc1[C@H]1[C@@H]2C[C@H](N3CCC4(C3)CS(=O)(=O)C4)C[C@@H]21 [Compound 6, 6-((1R,3r,5S,6r)-6-(1-Isopropyl-3-(2-(trifluoromethyl)pyrimidin-5-yl)-1H-pyrazol-5-yl)bicyclo[3.1.0]hexan-3-yl)-2-thia-6-azaspiro[3.4]octane 2,2-dioxide]	19 nM	18.1 nM
CC(C)n1nc(-c2ccnc(C(F)(F)F)n2)cc1[C@H]1[C@@H]2C[C@H](N3CCC4(CC3)CS(=O)(=O)C4)C[C@@H]21 (single isomer, unassigned) [Compound 50]	18 nM	49 nM
CC(C)n1nc(-c2cc(C(F)(F)F)ccn2)cc1[C@H]1[C@@H]2C[C@H](N3CCC4(C3)CS(=O)(=O)C4)C[C@@H]21 (single isomer, unassigned) [Compound 21]	43 nM	17.1 nM
C=C(c1cc([C@H]2[C@@H]3C[C@H](N4CCC5(C4)CS(=O)(=O)C5)C[C@@H]32)n(C(C)C)n1)C(F)(F)F [Compound 31, 6-((1R,3r,5S,6r)-6-(1-Isopropyl-3-(3,3,3-trifluoroprop-1-en-2-yl)-1H-pyrazol-5-yl)bicyclo[3.1.0]hexan-3-yl)-2-thia-6-azaspiro[3.4]octane 2,2-dioxide]	37 nM	19.2 nM
CC(C)n1nc(-c2cncc(C(F)(F)F)c2)cc1[C@H]1[C@@H]2C[C@@H](N3CC4(C3)CS(=O)(=O)C4)C[C@@H]21 (single isomer, unassigned) [Compound 98*]	51 nM	54 nM
CCn1nc(-c2cncc(C(F)(F)F)c2)cc1[C@H]1[C@@H]2C[C@H](N3CCC4(C3)CS(=O)(=O)C4)C[C@@H]21 (single isomer, unassigned) [Compound 25]	26 nM	14.6 nM
CC(C)n1nc(C(F)(F)F)cc1[C@H]1[C@@H]2C[C@@H](N3CCC4(C3)CS(=O)(=O)C4)C[C@@H]21 (single isomer, unassigned) [Compound 22]	30 nM	12.4 nM
CC(C)n1nc(-c2ccnc(C(F)(F)F)c2)cc1[C@H]1[C@@H]2C[C@@H](N3CCC4(C3)CS(=O)(=O)C4)C[C@@H]21 (single isomer, unassigned) [Compound 18]	30 nM	17 nM
